According to ChEMBL document CHEMBL2163207, “Predicting new indications for approved drugs using a proteochemometric method” (J Med Chem, 2012):

Experiments:
[1] = target: T1, Cadherin-11 (Mus musculus) (UniProt P55288); assay: Binding affinity to mouse recombinant CDH11 extracellular domain 1-2 by surface plasmon resonance
T1 sequence (whole entry): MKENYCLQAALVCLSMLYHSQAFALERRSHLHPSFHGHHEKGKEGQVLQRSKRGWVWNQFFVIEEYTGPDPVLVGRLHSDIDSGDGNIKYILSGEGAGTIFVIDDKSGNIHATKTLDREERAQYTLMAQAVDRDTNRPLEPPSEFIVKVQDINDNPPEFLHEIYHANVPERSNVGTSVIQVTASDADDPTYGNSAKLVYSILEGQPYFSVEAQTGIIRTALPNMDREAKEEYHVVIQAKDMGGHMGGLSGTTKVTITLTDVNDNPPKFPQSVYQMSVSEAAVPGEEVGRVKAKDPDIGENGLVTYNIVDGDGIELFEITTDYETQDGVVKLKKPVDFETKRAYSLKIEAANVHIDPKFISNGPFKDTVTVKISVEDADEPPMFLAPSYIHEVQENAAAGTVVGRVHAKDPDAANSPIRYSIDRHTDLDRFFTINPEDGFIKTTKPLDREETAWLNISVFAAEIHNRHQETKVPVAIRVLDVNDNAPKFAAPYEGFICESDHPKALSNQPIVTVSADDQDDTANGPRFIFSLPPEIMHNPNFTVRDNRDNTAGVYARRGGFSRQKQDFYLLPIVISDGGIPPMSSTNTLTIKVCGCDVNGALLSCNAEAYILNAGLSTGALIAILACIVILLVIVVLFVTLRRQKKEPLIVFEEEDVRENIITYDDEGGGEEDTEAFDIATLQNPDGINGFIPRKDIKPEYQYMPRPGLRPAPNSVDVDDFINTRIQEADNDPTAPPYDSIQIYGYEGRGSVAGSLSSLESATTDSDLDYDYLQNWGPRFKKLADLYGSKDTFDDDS

Plasma [2] = assay: Plasma concentration in human; format: ADME, cell-free
Plasma [3] = assay: Plasma concentration in rat; format: ADME, cell-free
MDA-MB-231 = assay: Cytotoxicity against human MDA-MB-231 cells after 48 hrs by MTS assay; format: functional, cell-based; details: MDA-MB-231, 48 h

SMILES	Activity [1]	concentration (Plasma [2]) [µM]	concentration (Plasma [3]) [µM]	IC50 (MDA-MB-231) [µM]
Cc1ccc(-c2cc(C(F)(F)F)nn2-c2ccc(S(N)(=O)=O)cc2)cc1 [CELECOXIB]	Dose-dependent effect	1	1	40
Cc1ccc(C)c(-c2cc(C(F)(F)F)nn2-c2ccc(S(N)(=O)=O)cc2)c1 [DIMETHYL CELECOXIB]	Dose-dependent effect	–	–	36
